Among the test systems are RPMI-8226 leukemia; SR leukemia; SK-MEL-2 melanoma; NCI-H522 lung; OVCAR-4 ovarian; SK-OV-3 ovarian; SW-620 colon; T-47D breast; SF-295 CNS; NCI-H226 lung; A549 NSCLC; UACC-257 melanoma; PC-3 prostate; LOX IMVI melanoma; MDA-MB-231 breast; HS 578T breast; UACC-62 melanoma; HL-60(TB) leukemia; MOLT-4 leukemia; RXF 393 renal.
Common to all, as to assay: NCI anticancer screen, dose series, 48 h

Molecules are shown by their SMILES.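 Step 1: Grow cells in 96-well plates. Step 2: Expose to compound for 48 hours at 5 concentrations. Step 3: Interpolate endpoints linearly; if unreached, use highest concentration. TGI is the concentration that stops growth completely.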 Where only a bound is given, the exact number is not on record here.

Take `CCNc1nc2c(ncn2C2CC(O)C(COP(=O)(O)O)O2)c(=O)[nH]1` (centres undefined): the TGI in the test on RPMI-8226 leukemia, in the test with SR leukemia, in the test with SK-MEL-2 melanoma, in the test with NCI-H522 lung, with OVCAR-4 ovarian and in the test on SK-OV-3 ovarian was more than 100 µM in each case. Moreover, the TGI with SW-620 colon, in the test on T-47D breast, in the test with SF-295 CNS, with NCI-H226 lung, in the test with A549 NSCLC and in the test on UACC-257 melanoma was more than 100 µM in each case. Also, the TGI in the test with PC-3 prostate, with LOX IMVI melanoma, in the test on MDA-MB-231 breast, in the test with HS 578T breast, in the test on UACC-62 melanoma and in the test on HL-60(TB) leukemia was more than 100 µM in each case.

Consider `CC(=O)N/N=C1/CC[C@@]2(C)C(=CC[C@H]3C4CCC(C(C)CCCC(C)C)[C@@]4(C)CCC32)C1(C)C` (some centres undefined), for which the TGI in the test with RPMI-8226 leukemia, in the test with SR leukemia, with SK-MEL-2 melanoma, in the test with NCI-H522 lung, with OVCAR-4 ovarian and with SK-OV-3 ovarian was more than 100 µM each time. In addition, the TGI was more than 100 µM with SW-620 colon; 34.1 µM in the test with MOLT-4 leukemia; more than 100 µM with T-47D breast; more than 100 µM with SF-295 CNS; more than 100 µM with NCI-H226 lung; more than 100 µM in the test with A549 NSCLC. Besides, the TGI with UACC-257 melanoma, with PC-3 prostate, in the test on LOX IMVI melanoma, in the test with HS 578T breast, in the test with UACC-62 melanoma and with HL-60(TB) leukemia was more than 100 µM each time.

Regarding `COc1ccc2c(c1)CCC1=C/C(=N\NC(N)=O)CCC12C` (centres undefined), the TGI in the test with RPMI-8226 leukemia, in the test on SR leukemia, in the test on NCI-H522 lung, with OVCAR-4 ovarian, in the test on SK-OV-3 ovarian and in the test on SW-620 colon was more than 10 µM throughout. The TGI with MOLT-4 leukemia, in the test on T-47D breast, in the test with SF-295 CNS, in the test with A549 NSCLC, with UACC-257 melanoma and in the test with PC-3 prostate was more than 10 µM each time. In addition, the TGI with LOX IMVI melanoma, in the test with MDA-MB-231 breast, in the test on HS 578T breast, in the test with UACC-62 melanoma and in the test on HL-60(TB) leukemia was more than 10 µM in each case.

Regarding `COc1ccc(NS(=O)c2ccccc2OC)cc1` (centres undefined), the TGI in the test with RPMI-8226 leukemia was more than 100 µM; with SR leukemia it was more than 100 µM; with SK-MEL-2 melanoma it was 46.6 µM; with NCI-H522 lung, 52.5 µM; in the test with OVCAR-4 ovarian, more than 100 µM; in the test on SW-620 colon, more than 100 µM. Besides, the TGI is more than 100 µM in the test with MOLT-4 leukemia; 35.2 µM with T-47D breast; more than 100 µM in the test on SF-295 CNS; 41.8 µM in the test with NCI-H226 lung; 79.8 µM in the test on A549 NSCLC; more than 100 µM with UACC-257 melanoma. Further, the TGI is more than 100 µM in the test with LOX IMVI melanoma; more than 100 µM with MDA-MB-231 breast; 84.5 µM in the test on HS 578T breast; 20.5 µM in the test with UACC-62 melanoma; more than 100 µM in the test on HL-60(TB) leukemia.

`CCO/C(O)=C(/C(=N)N1CCCC1)C(=O)Nc1ccc(F)cc1`: the TGI with RPMI-8226 leukemia, with SK-MEL-2 melanoma, in the test with NCI-H522 lung, in the test with OVCAR-4 ovarian, in the test on SK-OV-3 ovarian and in the test on SW-620 colon was more than 100 µM in each case. For the same compound, the TGI in the test with MOLT-4 leukemia, with T-47D breast, with SF-295 CNS, with RXF 393 renal, with NCI-H226 lung and with A549 NSCLC was more than 100 µM throughout. In addition, the TGI with UACC-257 melanoma, with PC-3 prostate, with LOX IMVI melanoma, in the test with MDA-MB-231 breast, with HS 578T breast and in the test on UACC-62 melanoma was more than 100 µM in each case. The compound also came in with a TGI in the test on HL-60(TB) leukemia of more than 100 µM.

For `CCOP(=O)(OCC)[C@]12C[C@@H](C)C=C[C@H]1COC2=O`, the TGI in the test on RPMI-8226 leukemia, in the test with SR leukemia, in the test on SK-MEL-2 melanoma, with NCI-H522 lung, in the test with OVCAR-4 ovarian and with SK-OV-3 ovarian was more than 100 µM throughout. In addition, the TGI with SW-620 colon, in the test on MOLT-4 leukemia, in the test with T-47D breast, in the test with SF-295 CNS, in the test with RXF 393 renal and in the test with A549 NSCLC was more than 100 µM in each case. Further, the TGI in the test on UACC-257 melanoma, in the test with PC-3 prostate, in the test with LOX IMVI melanoma, in the test on MDA-MB-231 breast, in the test on HS 578T breast and in the test with UACC-62 melanoma was more than 100 µM throughout.

On to `Cc1cc(=O)oc2c3c(ccc12)OC(c1ccc(Br)cc1)CC3=O` (centres undefined), for which the TGI in the test on RPMI-8226 leukemia is more than 100 µM; in the test on SR leukemia, more than 100 µM; in the test with SK-MEL-2 melanoma it was 33.5 µM; in the test with NCI-H522 lung it was 18 µM; with OVCAR-4 ovarian it was more than 100 µM; with SK-OV-3 ovarian, 30.3 µM. For the same compound, the TGI in the test on SW-620 colon is 23.9 µM; in the test on MOLT-4 leukemia, 4.91 µM; in the test on T-47D breast, 1.18 µM; in the test with SF-295 CNS, 23.9 µM; in the test with NCI-H226 lung, 38.2 µM; in the test on A549 NSCLC, 34.8 µM. Further, the TGI amounted to 27.9 µM in the test on UACC-257 melanoma; 47.9 µM in the test with PC-3 prostate; 14.6 µM with LOX IMVI melanoma; 37.8 µM in the test with MDA-MB-231 breast; 38.2 µM with HS 578T breast; 23.7 µM in the test with UACC-62 melanoma.

Turning to `O=C(NCCNCCNC(=O)C(F)(F)F)C(F)(F)F`, the TGI in the test with RPMI-8226 leukemia, with SR leukemia, in the test on SK-MEL-2 melanoma, in the test on OVCAR-4 ovarian, in the test on SK-OV-3 ovarian and with SW-620 colon was more than 100 µM each time. In addition, the TGI in the test on MOLT-4 leukemia, in the test with T-47D breast, in the test on SF-295 CNS, in the test with RXF 393 renal, in the test with NCI-H226 lung and in the test with A549 NSCLC was more than 100 µM each time. Also, the TGI in the test with UACC-257 melanoma, with PC-3 prostate, with LOX IMVI melanoma, with MDA-MB-231 breast, with HS 578T breast and in the test with UACC-62 melanoma was more than 100 µM in each case. The TGI in the test on HL-60(TB) leukemia is more than 100 µM.

Values taken from PubChem BioAssay (NCI).
